Broadly, the clearance is the volume of plasma or blood freed of the substance per unit of time. A low value points to inefficient removal. In general, half-life refers to how long it takes for the measured level to halve. A lower half-life goes with rapid decline. In general, bioavailability refers to dose-corrected exposure relative to a reference, in per cent. A lower bioavailability goes with poor availability.

Structures are written as SMILES.

This is an account of results in US20240409560A1, “PYRIMIDINE TRICYCLIC DERIVATIVE AND PHARMACEUTICAL APPLICATION THEREOF” (CHIA TAI TIANQING PHARMACEUTICAL GROUP CO., LTD., priority 2021, published 2024).

In one data set the target is T1, sGC (Homo sapiens, UniProt Q02153).
T1 construct: endogenous in cells; host or cells: LNCaP cells (14th passage), no transfection described
T1 sequence (Q02153 1-619): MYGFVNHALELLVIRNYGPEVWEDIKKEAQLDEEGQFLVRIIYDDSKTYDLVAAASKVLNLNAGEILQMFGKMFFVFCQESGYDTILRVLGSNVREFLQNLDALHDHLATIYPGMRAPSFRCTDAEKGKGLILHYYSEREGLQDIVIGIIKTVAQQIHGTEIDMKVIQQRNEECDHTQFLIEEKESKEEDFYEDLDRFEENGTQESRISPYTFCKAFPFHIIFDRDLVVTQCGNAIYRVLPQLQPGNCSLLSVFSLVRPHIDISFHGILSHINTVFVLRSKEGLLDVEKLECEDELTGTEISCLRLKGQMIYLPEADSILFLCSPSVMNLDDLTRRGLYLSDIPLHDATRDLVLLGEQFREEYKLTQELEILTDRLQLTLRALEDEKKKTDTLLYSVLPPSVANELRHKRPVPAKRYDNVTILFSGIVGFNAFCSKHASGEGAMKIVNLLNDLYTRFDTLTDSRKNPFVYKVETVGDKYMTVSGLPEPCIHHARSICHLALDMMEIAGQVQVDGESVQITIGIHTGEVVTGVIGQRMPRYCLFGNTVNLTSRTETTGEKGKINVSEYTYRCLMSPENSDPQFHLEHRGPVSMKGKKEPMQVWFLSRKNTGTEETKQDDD
T1 sequence (Q02108 1-690 partner): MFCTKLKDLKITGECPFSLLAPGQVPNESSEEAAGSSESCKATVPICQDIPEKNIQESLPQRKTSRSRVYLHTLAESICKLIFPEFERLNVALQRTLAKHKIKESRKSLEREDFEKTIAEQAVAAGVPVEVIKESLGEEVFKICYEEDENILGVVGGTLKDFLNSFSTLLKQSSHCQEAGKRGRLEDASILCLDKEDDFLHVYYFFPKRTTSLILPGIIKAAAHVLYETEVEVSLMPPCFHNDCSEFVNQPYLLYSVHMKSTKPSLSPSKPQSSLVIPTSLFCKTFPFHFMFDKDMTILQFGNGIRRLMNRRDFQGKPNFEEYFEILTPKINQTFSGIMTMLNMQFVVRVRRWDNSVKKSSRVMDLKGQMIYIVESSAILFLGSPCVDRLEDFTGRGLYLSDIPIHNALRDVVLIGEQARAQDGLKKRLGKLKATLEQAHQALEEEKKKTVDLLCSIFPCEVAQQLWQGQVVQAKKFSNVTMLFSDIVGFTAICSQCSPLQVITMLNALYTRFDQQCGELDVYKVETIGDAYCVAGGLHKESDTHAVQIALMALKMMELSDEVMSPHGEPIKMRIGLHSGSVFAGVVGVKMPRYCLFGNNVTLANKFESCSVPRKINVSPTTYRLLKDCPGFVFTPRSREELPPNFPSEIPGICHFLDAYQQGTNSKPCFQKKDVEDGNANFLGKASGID
The data set can be described thus: LNCap cell-based cGMP expression assay (HTRF). To be noted: minimum effective concentration to stimulate cGMP production (three times greater than the basal value) in lnCap cells; DETA-NO added. How it is done: I. InCap Cell-Based cGMP Expression Assay
• 10 g of BSA was dissolved in 100 mL of double distilled water (ddH2O) to give 10% BSA.
• 10 mg of DETA-NO was weighed out and dissolved in 12.2 mL of double distilled water (ddH2O) to give 5 mM DETA-NO, which was aliquoted and cryopreserved in a freezer at −20° C.
• a) To 1 mL of a lysis buffer was added 50 μL of cGMP-D2 (D2-labeled cyclic guanosine monophosphate), and the mixture was well mixed. • b) To 1 mL of a lysis buffer was added 50 μL of anti-cGMP cryptate (Eu^3+ cryptate-labeled anti-cyclic guanosine monophosphate antibody), and the mixture was well mixed.
• (1) The compounds were diluted to 5 mM with DMSO, 10 μL of each of the compounds was transferred to a shallow well plate for Echo. • (2) The compounds were serially diluted with Echo. Each of the compounds was diluted to obtain 10 concentration gradients, and 50 nL of each compound at each concentration gradient was added to a 384 microwell plate.
• (1) LNCap medium: RPMI1640+10% fetal bovine serum+1% […]. • (2) Phosphate buffered saline, pancreatin, and the medium used in the process of cell passaging were pre-heated in a water bath at 37° C. • (3) The cells (the 14th generation) were taken out of the 37° C. 5% CO2 incubator, and the old medium was pipetted off the culture flask. • (4) 5 mL of phosphate buffered saline was pipetted into the culture flask to rinse the cells, and then the liquid was discarded. • (5) 3 mL of pancreatin was pipetted into the culture flask. After the culture flask was shaken, the liquid was discarded, and the culture flask was placed in the incubator. • (6) After about 2 min, the culture flask was taken out. […] The cell suspension was transferred to a 50 mL centrifuge tube. • (7) 0.7 mL of the cell suspension was pipetted into a counter cup and the cells were counted on a ViCell XR. […]
• (1) cGMP-D2 was transferred to the 384 microwell plate at 5 μL/well using Bravo. […] The mixtures were centrifuged at 1500 rpm for 1 min. • (3) The plate was incubated at room temperature for 1 h. • (4) 665/615 was read using envision. […]

Data set [1] is described as follows: In vivo pharmacokinetic property study in male SD rats. To be noted: Sprague-Dawley, rat, plasma. As to the method:
Objective: This study was intended to determine the pharmacokinetic parameters of the compounds in male SD rats.
Sprague Dawley rats (Male, 200-300 g, 7-9 weeks old, Shanghai SLAC)
In the project, 4 male SD rats were used. One group of 2 SD rats were dosed by intravenous injection at 0.3 mg/kg, 0.15 mg/mL and another group of 2 SD rats were orally dosed at 1 mg/kg, 0.2 mg/mL. Plasma samples were collected at 0.083 h (the intravenous injection group only), 0.25 h, 0.5 h, 1 h, 2 h, 4 h, 6 h, 8 h, 12 h, and 24 h after the dosing and then subjected to LC-MS/MS analysis, and data were recorded. Relevant pharmacokinetic parameters were calculated using the Phoenix WinNonlin 6.3 software based on the recorded data.

The nature of data set [2]: Tissue distribution study in rats, oral administration. To be noted: male SD rats, po 1 mg/kg; samples at 2, 6, 12 h. It is filed as in vivo, Sprague Dawley rats. As to the method: Objective: This study was intended to test the distribution ratio of the compounds in plasma, heart, cerebrospinal fluid, and brain tissue in the case of oral administration.
Sprague Dawley Rats (Male, 200-300 g, 7-9 Weeks Old, Shanghai SLAC)
In the project, 6 male SD rats were orally dosed at 1 mg/kg, 0.2 mg/mL. Samples of cerebrospinal fluid, brain, heart tissue, and plasma were collected at 2 h, 6 h, and 12 h after the dosing and then subjected to LC-MS/MS analysis, and data were recorded. Relevant pharmacokinetic parameters were calculated using the Phoenix WinNonlin 6.3 software based on the recorded data.

`CO[C@@]12C(=O)Nc3nc(-c4nn(CCC(F)(F)C(F)(F)F)c5ncc(F)cc45)nc(c31)NC(=O)C2(C)C` [Compound 006]: the “MEC of the stimulating activity for sGC” value on sGC is recorded as 214 nM. In data set [1] (iv 0.3 mg/kg), this molecule gave a clearance of 4.58 mL/min/kg and a half-life of 6.28 h. Further, the Vd in data set [1] (iv 0.3 mg/kg, read-out: Vdss) is 2.36 L/kg. For the same molecule, in data set [1] (po 1 mg/kg), the bioavailability was found to be 65% and the half-life is 6.7 h. Further, in data set [2], the “AUC0-last, heart” value is 6970 h*nmol/L or h*nmol/kg and the “AUC0-last, plasma” value is 1889 h*nmol/L or h*nmol/kg.

In the case of `CO[C@]12C(=O)Nc3nc(-c4nn(CCC(F)(F)C(F)(F)F)c5ncc(F)cc45)nc(c31)NC(=O)C2(C)C` [Compound 007], the “MEC of the stimulating activity for sGC” value at sGC came out at 548 nM.

`CC1(C)C(=O)Nc2nc(-c3nn(Cc4ccccc4F)c4ncc(F)cc34)nc3c2C1(O)C(=O)N3` (stereo not shown) [Compound 016]: the “MEC of the stimulating activity for sGC” value on sGC is recorded as 19.3 nM.
